Experiments:
SCp2 cells [1] = assay: MMP-3-induced cell motility, invasion and morphological alterations (not shown); format: cell-based, mouse; conditions: NAC
vimentin = assay: Mesenchymal vimentin expression; format: cell-based, mouse; conditions: for expression of mesenchymal vimentin: MMP-3 4 days or 25 μM H2O2 7 days
Description: (§1) Except as otherwise indicated, cells were incubated in the presence of conditioned medium containing MMP-3 for 4 days and with 25 μM H2O2 for 7 days. NAC was used at a concentration of 10 mM. Antibodies against cytokeratin and vimentin were described previously (Lochter, A. et al. J Biol Chem 272, 5007-15, 1997; Lochter, A. et al. J Cell Biol 139, 1861-72, 1997).
(§2) […]; all modified plasmids were sequence-verified.

SCp2 cells [2] = assay: PALA resistance assay (genomic instability); format: cell-based, mouse
8-oxodeoxyguanosine = assay: 8-oxoG analysis, FITC-avidin nuclear staining (DNA damage); format: cell-based, mouse; conditions: for MMP-3-induced increase in FITC-avidin nuclear staining: cells treated with MMP-3 plus inhibitor, FIG. 4b
Description: ROS and 8-oxoG analyses. […] FITC-conjugated avidin (Sigma; 1 hr, 37° C.). […] ID NO: 12). […] J Cell Biol 158, 357-68 (2002).

cytokeratins = assay: Epithelial cytokeratin levels in MMP-3-treated cells; format: cell-based, mouse
From the text: Cell culture, antibodies, and plasmids. Cell culture was as previously described (Lochter, A. et al. Misregulation of stromelysin-1 expression in mouse mammary tumor cells accompanies acquisition of stromelysin-1-dependent invasive properties. J. Biol Chem 272, 5007-15, 1997; Lochter, A. et al. Matrix metalloproteinase stromelysin-1 triggers a cascade of molecular alterations that leads to stable epithelial-to-mesenchymal conversion and a premalignant phenotype in mammary epithelial cells. J Cell Biol 139, 1861-72, 1997); for gene repression, a 5 mg ml^−1 stock solution of tetracycline in 100% ethanol was diluted 1:1000 into culture medium and changed daily. To stimulate cells with MMP-3, we used medium that had been conditioned by SCp2 cells containing the tet-regulated, autoactivated MMP-3-construct (Lochter, A. et al. J Biol Chem 272, 5007-15, 1997; Lochter, A. et al. J Cell Biol 139, 1861-72, 1997) with expression induced by growth in the absence of tetracycline; conditioned medium from cells repressed by treatment with tetracycline was used for controls. This conditioned medium was analyzed by zymography to verify that only MMP-3 was being expressed, and was shown be active through extracellular proteolysis (FIG. 8). […] NAC was used at a concentration of 10 mM. […]

Snail = Snail transcript expression; format: cell-based, mouse; conditions: FIG. 3b; for expression of the transcription factor Snail: MMP-3, or H2O2 in the absence of MMP-3
Description: as §1, §2

[3] = tested on: keratin, E-cadherin, vimentin, SM actin, TGFβ, Snail, collagen A1 and fibronectin; conditions: cells treated with MMP-3 for 4 days; FIG. 5b
Description: (§3) Transcript levels were assessed using RT/PCR by isolating RNA (Tri-pure; Roche Diagnostics), synthesizing cDNA, and performing quantitative, real-time PCR (Lightcycler, Roche Diagnostics); all these experiments were normalized to GAPDH.

cellular ROS = conditions: treatment with MMP-3; FIG. 2a
Description: ROS and 8-oxoG analyses. To measure ROS concentrations, cells were incubated in the dark with 50 mM DCFDA (Molecular Probes) for 30 min in serum- and phenol-red-free medium. […] Images were captured using a Nikon Diaphot 300 microscope and Spot RT camera and software (Technical Instruments, Burlingame). Fluorescence was quantified using IMAGEJ (URL:=<http://rsb.info.nih.gov/ij/index.html>). For DCFDA staining, cellular fluorescence was quantified, for FITC-avidin staining, nuclear fluorescence was measured (using a DAPI image mask). More than 250 measurements were made for each data point.

SCp2 cells [4] = assay: Cell scattering (FIG. 3f); format: cell-based, mouse
Description: as §1

Cdc42 = conditions: MMP-3-treated cells; not shown
mammary epithelial cells = assay: Cell motility assessed by scratch assay; format: cell-based, mouse; conditions: FIG. 1f
From the text: FIG. 1f is a graph showing rate of cell migration and motility as assessed by scratch assay (Goodman, S. L., Vollmers, H. P., and Birchmeier, W. Cell 41, 1029-1038, 1985).

Rac1b = conditions: mammary epithelial cells treated with MMP-3; FIGS. 1b-1d
Description: as §3
For analysis of Rac1 and Rac1b (FIG. 1c), oligonucleotide primers that hybridize to sequences flanking the splice insertion site were used; for specific analysis of Rac1b (FIG. 1d, 4h), oligonucleotide primers specific for the Rac1b splice isoform were used.

SCp2 cells [5] = conditions: MMP-3 for 14 days, then selected with PALA; FIG. 4f
RhoA = conditions: MMP-3-treated cells; not shown
CAD locus = assay: Fluorescence in situ hybridization of CAD gene locus; format: cell-based, mouse; conditions: exposure to MMP-3; FIG. 4d
SCp2 cells [6] = assay: LC50 of PALA for SCp2 cells; conditions: read-out: LC50 of PALA for SCp2 cells
MMP-3 = target: T1, MMP-3 (Rattus norvegicus, UniProt P03957); assay: Effect of MMP inhibitor on cells treated with MMP-3 (vimentin-EGFP construct, morphology, FIG. 8b); format: cell-based, mouse
T1 construct: expressed in transfected cells; host or cells: SCp2 cells; conditioned medium used as the MMP-3 source
T1 sequence (P03957 98-475): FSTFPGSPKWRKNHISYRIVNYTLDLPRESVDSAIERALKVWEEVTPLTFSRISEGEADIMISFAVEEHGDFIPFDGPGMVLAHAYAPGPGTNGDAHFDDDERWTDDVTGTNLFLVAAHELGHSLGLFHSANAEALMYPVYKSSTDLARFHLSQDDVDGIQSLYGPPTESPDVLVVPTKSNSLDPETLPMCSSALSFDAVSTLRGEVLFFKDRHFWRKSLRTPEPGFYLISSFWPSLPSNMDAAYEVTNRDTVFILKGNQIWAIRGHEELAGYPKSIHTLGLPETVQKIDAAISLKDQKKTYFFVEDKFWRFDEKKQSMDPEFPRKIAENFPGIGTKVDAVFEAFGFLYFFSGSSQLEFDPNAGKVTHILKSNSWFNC
From the text: The MMP inhibitor GM6001 blocked the MMP-3-mediated effects. […] Scale bar, 50 μm.

[7] = SCp2 cells, treatment with MMP-3 for 28 days, FIG. 5a

CC(=O)N[C@@H](CS)C(=O)O [NAC, N-acetyl cysteine, reference compound]
MMP-3-induced cell motility, invasion, and morphological alterations (SCp2 cells [1]): inhibited
MMP-3-induced upregulation of mesenchymal vimentin (vimentin; NAC 10 mM, FIG. 3g): effectively inhibited
MMP-3-induced PALA resistance / CAD amplification (SCp2 cells [2]; 14 d treatment with MMP-3, NAC 10 mM, FIG. 4e): inhibited
MMP-3-induced increase in FITC-avidin nuclear staining (8-oxodeoxyguanosine): blocked
MMP-3-induced downregulation of epithelial cytokeratins (cytokeratins; NAC 10 mM, FIG. 3a): effectively inhibited
MMP-3-enhanced expression of transcription factor Snail (Snail; NAC 10 mM): blocked

MMP-3: autoactivated MMP-3 supplied as medium conditioned by SCp2 cells with tet-regulated construct
transcript levels of keratin and E-cadherin [3]: greater than two-fold decrease
transcript levels of vimentin, SM actin, TGFβ, Snail, collagen A1 and fibronectin [3]: two-fold or greater increase
cellular ROS (DCFDA fluorescence) (cellular ROS): produced increases
cell scattering (SCp2 cells [4]): cell scattering induced
expression of mesenchymal vimentin (vimentin; FIG. 3g): can stimulate expression
vimentin staining (vimentin; [7]): increase in vimentin
PALA-resistant colonies, after 28 days of MMP-3 exposure (SCp2 cells [2]; SCp2 cells, 200 μM PALA, after 28 days): 700 colonies/10^5 cells
PALA-resistant colonies, after one week of MMP-3 exposure (SCp2 cells [2]; SCp2 cells, 200 μM PALA, one week of MMP-3 exposure): 200 colonies/10^5 cells
FITC-avidin nuclear staining (8-oxodeoxyguanosine; cells treated with MMP-3 vs untreated, FIG. 4a): significantly increased
cytokeratin staining (cytokeratins; [7]): decrease in cytokeratins
activity of Cdc42 (Cdc42): unchanged
cell migration and motility (mammary epithelial cells): causes an increase
Rac1b transcript and expression levels (Rac1b): upregulates
genomic alterations by CGH analysis (SCp2 cells [5]): many additional genomic amplifications and deletions
activity of RhoA (RhoA): unchanged
CAD locus copy number in PALA-resistant cells (CAD locus): amplification of the CAD locus
expression of the transcription factor Snail (Snail): enhances expression

O=C(O)C[C@H](NC(=O)CP(=O)(O)O)C(=O)O [PALA, N-(phosphonacetyl)-L-aspartate]
CC50 (SCp2 cells [6]): 25 µM

OO [H2O2, reference compound]
cell scattering (SCp2 cells [4]): cell scattering induced
expression of mesenchymal vimentin (vimentin; FIG. 3g): can stimulate expression
PALA resistance in the absence of MMP-3 (SCp2 cells [2]; H2O2 25 μM, FIG. 4e): reproduced
expression of the transcription factor Snail (Snail): induced

CNC(=O)[C@H](Cc1c[nH]c2ccccc12)NC(=O)[C@@H](CC(=O)NO)CC(C)C [GM6001]
MMP-3-induced increase in FITC-avidin nuclear staining (8-oxodeoxyguanosine): blocked
MMP-3-mediated effects (MMP-3; cells treated with MMP-3): blocked
malignant transformation (flattened morphology of invasive cells) of MMP-3 induced cells (MMP-3; coincubation with GM6001): prevents

Source: patent US20090191543A1, “IDENTIFICATION OF RAC1B AS A MARKER AND MEDIATOR OF METALLOPROTEINASE-INDUCED MALIGNANCY” (THEREGENTS OF THE UNIVERSITY OF CALIFORNIA, priority 2005, published 2009)
